Data taken from ChEMBL document CHEMBL3585308, “Discovery and Modification of in Vivo Active Nrf2 Activators with 1,2,4-Oxadiazole Core: Hits Identification and Structure-Activity Relationship Study” (J Med Chem, 2015).
Activity calls are given as the source filed them. The rule behind the calls is not given here.

What was measured:
Type in all cases: cell-based
[1] = molecular target: T1, Nuclear factor erythroid 2-related factor 2 (Homo sapiens) (UniProt Q16236); assay: Activation of Nrf2 in human HepG2-ARE-C8 cells assessed as upregulation of ARE level at 40 uM after 12 hrs by luciferase reporter gene assay relative to control
T1 sequence (whole entry): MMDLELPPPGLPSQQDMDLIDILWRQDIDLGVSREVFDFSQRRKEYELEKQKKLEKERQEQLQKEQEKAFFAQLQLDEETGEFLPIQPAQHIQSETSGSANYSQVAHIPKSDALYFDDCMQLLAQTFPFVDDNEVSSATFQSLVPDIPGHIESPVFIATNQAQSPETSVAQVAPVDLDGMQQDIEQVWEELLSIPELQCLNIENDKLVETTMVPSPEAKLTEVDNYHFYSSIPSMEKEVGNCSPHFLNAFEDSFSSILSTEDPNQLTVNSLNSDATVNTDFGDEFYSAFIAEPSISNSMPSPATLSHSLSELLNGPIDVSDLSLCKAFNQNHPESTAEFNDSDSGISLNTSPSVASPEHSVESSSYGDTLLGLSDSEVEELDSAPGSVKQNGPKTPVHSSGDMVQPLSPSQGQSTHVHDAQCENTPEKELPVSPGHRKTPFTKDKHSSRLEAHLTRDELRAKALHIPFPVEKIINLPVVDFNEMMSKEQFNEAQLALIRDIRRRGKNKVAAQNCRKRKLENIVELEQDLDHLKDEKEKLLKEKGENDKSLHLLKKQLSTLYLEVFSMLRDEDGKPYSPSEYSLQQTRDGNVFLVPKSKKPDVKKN

[2] = molecular target: T1, Nuclear factor erythroid 2-related factor 2 (Homo sapiens); assay: Activation of Nrf2 in human HepG2-ARE-C8 cells assessed as upregulation of ARE level at 80 uM after 12 hrs by luciferase reporter gene assay relative to control
[3] = molecular target: T1, Nuclear factor erythroid 2-related factor 2 (Homo sapiens); assay: Activation of Nrf2 in human HepG2-ARE-C8 cells assessed as upregulation of ARE level at 160 uM after 12 hrs by luciferase reporter gene assay relative to control
[4] = system: HCT-116; assay: Cytotoxicity against human HCT116 cells assessed as effect on cell proliferation at 5 to 80 uM after 24 hrs by MTT assay; conditions: hct-116, 24 h
[5] = molecular target: T1, Nuclear factor erythroid 2-related factor 2 (Homo sapiens); assay: Activation of Nrf2 in human HCT116 cells assessed as upregulation of HO-1 expression at 10 uM measured at 4 hrs by Western blot analysis; conditions: HCT-116
[6] = molecular target: T1, Nuclear factor erythroid 2-related factor 2 (Homo sapiens); assay: Activation of Nrf2 in human HCT116 cells assessed as upregulation of NQO1 expression after 6 hrs by Western blot analysis; conditions: HCT-116
[7] = molecular target: T1, Nuclear factor erythroid 2-related factor 2 (Homo sapiens); assay: Activation of Nrf2 in human HCT116 cells after 6 hrs by Western blot analysis; conditions: HCT-116
[8] = molecular target: T1, Nuclear factor erythroid 2-related factor 2 (Homo sapiens); assay: Activation of Nrf2 in human HCT116 cells at 10 uM after 2 hrs by Western blot analysis; conditions: HCT-116
[9] = molecular target: T1, Nuclear factor erythroid 2-related factor 2 (Homo sapiens); assay: Activation of Nrf2 in human HCT116 cells at 10 uM by qRT-PCR analysis; conditions: HCT-116, TDE = time-dependent effect
[10] = molecular target: T1, Nuclear factor erythroid 2-related factor 2 (Homo sapiens); assay: Activation of Nrf2 in human HCT116 cells at 10 uM measured at 4 hrs by qRT-PCR analysis relative to control; conditions: HCT-116
[11] = molecular target: T1, Nuclear factor erythroid 2-related factor 2 (Homo sapiens); assay: Activation of Nrf2 in human HCT116 cells assessed as upregulation of GCLM gene expression at 10 uM measured at 6 hrs by qRT-PCR analysis relative to control; conditions: HCT-116
[12] = molecular target: T1, Nuclear factor erythroid 2-related factor 2 (Homo sapiens); assay: Activation of Nrf2 in human HCT116 cells assessed as upregulation of HO-1 gene expression at 10 uM measured at 6 hrs by qRT-PCR analysis relative to control; conditions: HCT-116
[13] = molecular target: T1, Nuclear factor erythroid 2-related factor 2 (Homo sapiens); assay: Activation of Nrf2 in human HCT116 cells assessed as upregulation of NQO1 gene expression at 10 uM measured over 1 to 24 hrs by qRT-PCR analysis relative to control; conditions: HCT-116
[14] = molecular target: T1, Nuclear factor erythroid 2-related factor 2 (Homo sapiens); assay: Activation of Nrf2 in human HCT116 cells measured at 4 hrs by qRT-PCR analysis; conditions: HCT-116
[15] = molecular target: T1, Nuclear factor erythroid 2-related factor 2 (Homo sapiens); assay: Activation of Nrf2 in human HCT116 cells assessed as upregulation of GCLM gene expression measured at 4 hrs by qRT-PCR analysis; conditions: HCT-116
[16] = molecular target: T1, Nuclear factor erythroid 2-related factor 2 (Homo sapiens); assay: Activation of Nrf2 in human HCT116 cells assessed as upregulation of HO-1 gene expression measured at 4 hrs by qRT-PCR analysis; conditions: HCT-116
[17] = molecular target: T1, Nuclear factor erythroid 2-related factor 2 (Homo sapiens); assay: Activation of Nrf2 in human HCT116 cells assessed as upregulation of GCLM gene expression at 40 uM measured at 4 hrs by qRT-PCR analysis relative to control; conditions: HCT-116
[18] = molecular target: T1, Nuclear factor erythroid 2-related factor 2 (Homo sapiens); assay: Activation of Nrf2 in human HCT116 cells assessed as upregulation of HO-1 gene expression at 40 uM measured at 4 hrs by qRT-PCR analysis relative to control; conditions: HCT-116
[19] = molecular target: T1, Nuclear factor erythroid 2-related factor 2 (Homo sapiens); assay: Activation of Nrf2 in human HCT116 cells at 40 uM measured at 4 hrs by qRT-PCR analysis relative to control; conditions: HCT-116
[20] = molecular target: T1, Nuclear factor erythroid 2-related factor 2 (Homo sapiens); assay: Activation of Nrf2 in human HCT116 cells assessed as upregulation of NQO1 gene expression at 40 uM measured at 4 hrs by qRT-PCR analysis relative to control; conditions: HCT-116
[21] = molecular target: T1, Nuclear factor erythroid 2-related factor 2 (Homo sapiens); assay: Activation of Nrf2 in human HepG2-ARE-C8 cells assessed as upregulation of ARE level at 20 uM after 12 hrs by luciferase reporter gene assay relative to control
[22] = molecular target: T1, Nuclear factor erythroid 2-related factor 2 (Homo sapiens); assay: Activation of Nrf2 in human HepG2-ARE-C8 cells assessed as upregulation of ARE level at 0.2 uM after 12 hrs by luciferase reporter gene assay relative to control
[23] = molecular target: T1, Nuclear factor erythroid 2-related factor 2 (Homo sapiens); assay: Activation of Nrf2 in human HepG2-ARE-C8 cells assessed as upregulation of ARE level at 0.02 uM after 12 hrs by luciferase reporter gene assay relative to control
[24] = molecular target: T1, Nuclear factor erythroid 2-related factor 2 (Homo sapiens); assay: Activation of Nrf2 in human HepG2-ARE-C8 cells assessed as upregulation of ARE level at 2 uM after 12 hrs by luciferase reporter gene assay relative to control

fold change (FC) [1]: 12.4
fold change (FC) [2]: 12.1
fold change (FC) [3]: 8.73
Activity [5]: Active
Activity [6]: Dose-dependent effect
Activity [7]: Dose-dependent effect
Activity [8]: Active
Activity [9]: tde
fold change (FC) [10]: 5
fold change (FC) [11]: 2.5
fold change (FC) [12]: 2.4
fold change (FC) [13]: 1.5
Activity [14]: Dose-dependent effect
Activity [15]: Dose-dependent effect
Activity [16]: Dose-dependent effect
fold change (FC) [17]: 3.8
fold change (FC) [18]: 7
fold change (FC) [19]: 3.4
fold change (FC) [20]: 2
fold change (FC) [21]: 7.61
fold change (FC) [22]: 1.5
fold change (FC) [23]: 1.09
fold change (FC) [24]: 3.35
SMILES: Cn1cnc2ccc(-c3noc(-c4ccc5cc[nH]c5c4)n3)cc21
Activity [4]: Non-toxic
